As a reminder, the IC50 is the midpoint of a concentration-inhibition curve.

The target in the test is human HPK1 (MAP4K1) (Homo sapiens (Human), UniProt Q92918). Kind of test: HPK1 IC50 Assay (TR-FRET peptide phosphorylation). It counts as biochemical. As to conditions: recombinant HPK1 kinase domain 0.15 nM, 10 μM ATP, 1 μM STK S1 peptide; geometric mean of multiple experiments. On the procedure: The enzymatic activity of human HPK1 (MAP4K1) was monitored in a biochemical assay in the presence or absence of compounds and using a synthetic peptide substrate. An increase in phosphorylation of the peptide by HPK1 was indicative of its kinase activity.
Chain of human HPK1 (MAP4K1) (Q92918 17-274): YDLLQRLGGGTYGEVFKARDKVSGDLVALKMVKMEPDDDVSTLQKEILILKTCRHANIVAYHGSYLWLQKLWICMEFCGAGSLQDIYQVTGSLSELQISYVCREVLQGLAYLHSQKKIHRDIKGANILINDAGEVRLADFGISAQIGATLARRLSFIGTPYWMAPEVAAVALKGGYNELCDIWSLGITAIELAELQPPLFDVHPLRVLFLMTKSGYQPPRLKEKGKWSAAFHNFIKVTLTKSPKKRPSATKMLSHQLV
Recombinant HPK1 kinase domain produced via baculovirus infection of insect cells was obtained from Proteros (Proteros Biostructures #PR-0322) and was pre-activated in the presence of 2 mM ATP (Sigma-Aldrich, cat #GE27-2056-01) and 2 mM magnesium chloride for 16 hours at 4° C. The protein reaction mixture was then loaded to a desalting column (Thermo Fisher Scientific, Cat #89889) to remove excess ATP. HPK1 was eluted with buffer containing 20 mM Tris (2-Amino-2-(hydroxymethyl)propane-1,3-diol) pH 8.0, 150 mM NaCl, 2 mM dithiothreitol and 5% glycerol, and was frozen at −80° C. for later use. HPK1 dual phosphorylation was confirmed by mass spectrometry.
Ten nanoliters of test compounds dissolved in DMSO at various concentrations were dispensed into a 384-well ProxiPlate (PerkinElmer #6008289). Five microliters of a solution of recombinant HPK1 diluted in HPK1 kinase assay buffer (50 mM BES [N,N-Bis(2-hydroxyethyl)-2-aminoethanesulfonic acid], pH 7.0; 10 mM magnesium chloride; 0.01% Triton X-100; 1 mM dithiothreitol; 0.01% bovine serum albumin; 0.1 mM sodium orthovanadate) was added to the compound-containing plate and was incubated for 15 minutes at 25° C. Five microliters of a mixture of ATP (Sigma-Aldrich #A6559) and peptide substrate STK S1 (Cisbio #61ST1BLC) diluted in HPK1 kinase assay buffer was then added to start the reaction. Final concentrations were 0.15 nM for HPK1, 10 μM for ATP, and 1 μM for the STK S1 peptide substrate. The reaction mixture was incubated at 25° C. for 3 hours and was stopped with the addition of 10 μl of an EDTA (Ethylenediaminetetraacetic acid)-containing detection buffer (Cisbio #62SDBRDF) supplemented with Europium cryptate-labeled anti-phospho-serine/threonine antibodies (Cisbio #62ST1PEJ) and XL665-labeled streptavidin (Cisbio #610SAXLG). The mixture was incubated for 16 hours at room temperature and peptide phosphorylation was measured by time-resolved fluorescence energy transfer (665 nm/620 nm) on an Envision plate reader (PerkinElmer).
Data in Table 1 were normalized based on positive (staurosporine) and negative (DMSO) controls. Least squares curve fittings were performed using a four-parameter variable slope nonlinear regression model. IC50 is defined as the concentration of compound required to inhibit 50% of maximum phosphorylation. IC50 values from multiple experiments were averaged by geometric mean and the standard deviation was calculated.
For the compound `Cc1c(C(=O)NC2(C(F)F)CC2)cc(Nc2nc(-c3cnc4c(c3)N([C@H]3C[C@@](C)(N5CCC6CC5CO6)C3)C(=O)C4(C)C)cc3ncn(C(C)C)c23)c(F)c1F` (mixture of isomers) [Example 190, 5-((6-(1-((1s,3s)-3-(6-Oxa-2-azabicyclo[3.2.1]octan-2-yl)-3-methylcyclobutyl)-3,3-dimethyl-2-oxo-2,3-dihydro-1H-pyrrolo[3,2-b]pyridin-6-yl)-3-isopropyl-3H-imidazo[4,5-c]pyridin-4-yl)amino)-N-(1-(difluoromethyl)cyclopropyl)-3,4-difluoro-2-methylbenzamide], the IC50 is 70 pM.

For `CC(C)n1cnc2cc(-c3cnc4c(c3)N([C@H]3C[C@@](C)(N5CCC6CC6C5)C3)C(=O)C4(C)C)nc(Nc3cc(C(=O)NC4(CF)CC4)c(Cl)c(F)c3F)c21` (mixture of isomers) [Example 257, 5-((6-(1-((1s,3s)-3-(3-azabicyclo[4.1.0]heptan-3-yl)-3-methylcyclobutyl)-3,3-dimethyl-2-oxo-2,3-dihydro-1H-pyrrolo[3,2-b]pyridin-6-yl)-3-isopropyl-3H-imidazo[4,5-c]pyridin-4-yl)amino)-2-chloro-3,4-difluoro-N-(1-(fluoromethyl)cyclopropyl)benzamide], the IC50 came out at 100 pM.

As for `CC(C)n1cnc2cc(-c3cnc4c(c3)N([C@H]3C[C@@](C)(N5CCC6CC6C5)C3)C(=O)C4(C)C)nc(Nc3cc(C(=O)NC4(C(F)F)CC4)c(Cl)c(F)c3F)c21` (mixture of isomers) [Example 260, 5-((6-(1-((1s,3s)-3-(3-azabicyclo[4.1.0]heptan-3-yl)-3-methylcyclobutyl)-3,3-dimethyl-2-oxo-2,3-dihydro-1H-pyrrolo[3,2-b]pyridin-6-yl)-3-isopropyl-3H-imidazo[4,5-c]pyridin-4-yl)amino)-2-chloro-N-(1-(difluoromethyl)cyclopropyl)-3,4-difluorobenzamide], the IC50 turned out to be 80 pM.

With `CNC(=O)c1cc(Nc2nc(-c3ccc4c(c3)N([C@H]3C[C@@H](N5CCCCC5)C3)C(=O)C4(C)C)cc3ncn(C(C)C)c23)ccc1C` [Example 1, 5-((6-(3,3-dimethyl-2-oxo-1-((1s,3s)-3-(piperidin-1-yl)cyclobutyl)indolin-6-yl)-3-isopropyl-3H-imidazo[4,5-c]pyridin-4-yl)amino)-N,2-dimethylbenzamide], the IC50 came to 80 pM.

`Cc1ccc(Nc2nc(-c3ccc4c(c3)N([C@H]3C[C@@H](N5CCCCC5)C3)C(=O)C4(C)C)cc3ncn(C(C)C)c23)cc1C(=O)NC1CCC1` [Example 2]: the 50% inhibitory concentration (IC50) is 100 pM.

On to `CNC(=O)c1cc(Nc2nc(-c3ccc4c(c3)N([C@H]3C[C@@H](N5CCC(C)(C)C5)C3)C(=O)C4(C)C)cc3ncn(C(C)C)c23)ccc1C` [Example 3], for which the IC50 was determined as 100 pM.

For the compound `CNC(=O)c1cc(Nc2nc(-c3ccc4c(c3)N([C@H]3C[C@@H](N5CC[C@@H](F)C5)C3)C(=O)C4(C)C)cc3ncn(C(C)C)c23)ccc1C` [Example 4], the IC50 stood at 100 pM.

For the compound `CNC(=O)c1cc(Nc2nc(-c3ccc4c(c3)N([C@H]3C[C@@H](N5CC[C@H](F)C5)C3)C(=O)C4(C)C)cc3ncn(C(C)C)c23)ccc1C` [Example 5], the half-inhibitory concentration (IC50) turned out to be 200 pM.

In the case of `CNC(=O)c1cc(Nc2nc(-c3ccc4c(c3)N([C@H]3C[C@@H](N5C6COCC5C6)C3)C(=O)C4(C)C)cc3ncn(C(C)C)c23)ccc1C` [Example 6], the IC50 came out at 100 pM.

Regarding `CNC(=O)c1cc(Nc2nc(-c3ccc4c(c3)N([C@H]3C[C@@H](N5CC6C(C5)C6(F)F)C3)C(=O)C4(C)C)cc3ncn(C(C)C)c23)ccc1C` (stereo partly drawn) [Example 7], the IC50 is 400 pM.

On to `CNC(=O)c1cc(Nc2nc(-c3ccc4c(c3)N([C@H]3C[C@@H](N5C6CCC5COC6)C3)C(=O)C4(C)C)cc3ncn(C(C)C)c23)c(F)cc1C` [Example 8], for which the IC50 is 80 pM.

With `CNC(=O)c1cc(Nc2nc(-c3ccc4c(c3)N([C@H]3C[C@@H](N5C6COCC5C6)C3)C(=O)C4(C)C)cc3ncn(C(C)C)c23)c(F)cc1C` [Example 9], the IC50 worked out at 100 pM.

With `CNC(=O)c1cc(Nc2nc(-c3ccc4c(c3)N([C@H]3C[C@@H](N5CC6CCC(C5)O6)C3)C(=O)C4(C)C)cc3ncn(C(C)C)c23)c(F)cc1C` [Example 10], the IC50 was 100 pM.

`CNC(=O)c1cc(Nc2nc(-c3ccc4c(c3)N([C@H]3C[C@@H](NC(C)C)C3)C(=O)C4(C)C)cc3ncn(C(C)C)c23)ccc1C` [Example 11]: the IC50 turned out to be 100 pM.

For the compound `CNC(=O)c1cc(Nc2nc(-c3ccc4c(c3)N([C@H]3C[C@@H](N[C@@H]5CCOC[C@@H]5C)C3)C(=O)C4(C)C)cc3ncn(C(C)C)c23)ccc1C` [Example 12], the IC50 was determined as 90 pM.

With `CNC(=O)c1cc(Nc2nc(-c3ccc4c(c3)N([C@H]3C[C@@H](N[C@@H]5CCOC[C@H]5C)C3)C(=O)C4(C)C)cc3ncn(C(C)C)c23)ccc1C` [Example 13], the IC50 amounted to 100 pM.

For the compound `CNC(=O)c1cc(Nc2nc(-c3ccc4c(c3)N([C@H]3C[C@@H](NC(C)C)C3)C(=O)C4(C)C)cc3ncn(C(C)C)c23)c(F)cc1C` [Example 14], the IC50 amounted to 300 pM.

Regarding `CNC(=O)c1cc(Nc2nc(-c3ccc4c(c3)N([C@H]3C[C@@H](NCC(C)(C)O)C3)C(=O)C4(C)C)cc3ncn(C(C)C)c23)c(F)cc1C` [Example 15], the IC50 was determined as 100 pM.

In the case of `Cc1ccc(Nc2nc(-c3ccc4c(c3)N([C@H]3C[C@@H](N5CCOC(C)(C)C5)C3)C(=O)C4(C)C)cc3ncn(C4CC4)c23)cc1C(N)=O` [Example 16], the IC50 amounted to 100 pM.

On to `Cc1ccc(Nc2nc(-c3ccc4c(c3)N([C@H]3C[C@@H](N5CCC[C@@H](F)C5)C3)C(=O)C4(C)C)cc3ncn(C4CC4)c23)cc1C(N)=O` [Example 17], for which the IC50 is 40 pM.

Regarding `CNC(=O)c1cc(Nc2nc(-c3cnc4c(c3)N([C@H]3C[C@@H](N5CCCCC5)C3)C(=O)C4(C)C)cc3ncn(C(C)C)c23)ccc1C` [Example 18], the IC50 came out at 400 pM.

Regarding `Cc1ccc(Nc2nc(-c3cnc4c(c3)N([C@H]3C[C@@H](N5CCCCC5)C3)C(=O)C4(C)C)cc3ncn(C(C)C)c23)cc1C(=O)NC1(C(F)F)CC1` [Example 19], the half-inhibitory concentration (IC50) turned out to be 300 pM.

`Cc1ccc(Nc2nc(-c3ccc4c(c3)N([C@H]3C[C@@H](N5CCCCC5)C3)C(=O)C4(C)C)cc3ncn(C(C)C)c23)cc1C(=O)NCC(F)F` [Example 20]: the concentration for half-maximal inhibition (IC50) came to 50 pM.

`Cc1ccc(Nc2nc(-c3ccc4c(c3)N([C@H]3C[C@@H](N5CCCCC5)C3)C(=O)C4(C)C)cc3ncn(C(C)C)c23)cc1C(=O)NC(C)C(F)F` (stereo partly drawn) [Example 21, N-(1,1-difluoropropan-2-yl)-5-((6-(3,3-dimethyl-2-oxo-1-((1s,3s)-3-(piperidin-1-yl)cyclobutyl)indolin-6-yl)-3-isopropyl-3H-imidazo[4,5-c]pyridin-4-yl)amino)-2-methylbenzamide]: the IC50 is 50 pM.

Take `Cc1ccc(Nc2nc(-c3ccc4c(c3)N([C@H]3C[C@@H](N5CCCCC5)C3)C(=O)C4(C)C)cc3ncn(C(C)C)c23)cc1C(=O)N[C@@H](C)C(F)F` [Example 21A, N-(1,1-difluoropropan-2-yl)-5-((6-(3,3-dimethyl-2-oxo-1-((1s,3s)-3-(piperidin-1-yl)cyclobutyl)indolin-6-yl)-3-isopropyl-3H-imidazo[4,5-c]pyridin-4-yl)amino)-2-methylbenzamide]: the IC50 was determined as 70 pM.

Take `Cc1ccc(Nc2nc(-c3ccc4c(c3)N([C@H]3C[C@@H](N5CCCCC5)C3)C(=O)C4(C)C)cc3ncn(C(C)C)c23)cc1C(=O)N[C@H](C)C(F)F` [Example 21B, N-(1,1-difluoropropan-2-yl)-5-((6-(3,3-dimethyl-2-oxo-1-((1s,3s)-3-(piperidin-1-yl)cyclobutyl)indolin-6-yl)-3-isopropyl-3H-imidazo[4,5-c]pyridin-4-yl)amino)-2-methylbenzamide]: the IC50 is 70 pM.

Take `CCNC(=O)c1cc(Nc2nc(-c3ccc4c(c3)N([C@H]3C[C@@H](N5CCCCC5)C3)C(=O)C43CCOCC3)cc3ncn(C(C)C)c23)ccc1C` [Example 22]: the IC50 worked out at 70 pM.

`Cc1ccc(Nc2nc(-c3ccc4c(c3)N([C@H]3C[C@@H](N5CCCCC5)C3)C(=O)C43CCOCC3)cc3ncn(C(C)C)c23)cc1C(=O)NC1CCC1` [Example 23]: the half-maximal inhibitory concentration (IC50) was 200 pM.

`CCCNC(=O)c1cc(Nc2nc(-c3ccc4c(c3)N([C@H]3C[C@@H](N5CCCCC5)C3)C(=O)C4(C)C)cc3ncn(C(C)C)c23)ccc1C` [Example 24]: the half-maximal inhibitory concentration (IC50) stood at 80 pM.

Turning to `Cc1ccc(Nc2nc(-c3ccc4c(c3)N([C@H]3C[C@@H](N5CCCCC5)C3)C(=O)C4(C)C)cc3ncn(C(C)C)c23)cc1C(=O)NCCC(F)F` [Example 25], the IC50 stood at 70 pM.

The record behind these values is patent US11203591B2, “Substituted 6-azabenzimidazole compounds” (Gilead Sciences, Inc., priority 2018, dated 2021).
